Here are results for 2 compounds from US20040248928A1, “Pharmaceutical composition comprising an adenosine A1/A2 agonist and a sodium hydrogen exchanger inhibitor” (Adventis Pharmaceuticals Inc., priority 2001, published 2004).

Marks after values point to notes of the source that are not given here.

Test [1] concerns open-chest rabbit hearts. The test can be described thus: Infarct size, 60 min ischemia model (open-chest rabbit, TTC staining). The format is in vivo, New Zealand White rabbits. The note with it: 60 min ischemia + 3 h reperfusion; for Infarct size: (E)=5 min prior to ischemia, (L)=at reperfusion, AMP given at reperfusion, mean ± S.E.M. The method, then: New Zealand White rabbits of either sex weighing 2.0-2.5 kg were anesthetized with pentobarbital (30 mg/kg iv), intubated through a tracheotomy, and ventilated with 100% oxygen via a positive pressure respirator (MD industries, Mobile, Ala.). The ventilation rate and tidal volume were adjusted to maintain arterial blood gases in the physiological range. Body temperature was maintained at 38-39° C. A catheter was inserted into the left carotid artery for monitoring blood pressure. Another catheter was inserted into the right jugular vein for drug infusion. A left thoracotomy was performed in the fourth intercostal space, and the pericardium was opened to expose the heart. A 2-0 silk suture on a curved taper needle was passed through the myocardium around a prominent branch of the left coronary artery. The ends of the suture were passed through a small piece of soft vinyl tubing to form a snare. Ischemia was induced by pulling the snare and then fixing it by clamping the tube with a small hemostat. Ischemia was confirmed by appearance of cyanosis. Reperfusion was achieved by releasing the snare and was confirmed by visible hyperemia on the ventricular surface. After 3 h of reperfusion, the rabbit was given an overdose of pentobarbital and the heart was quickly removed from the chest, mounted on a Langendorff apparatus, and perfused with saline to wash out blood. Then the coronary artery was reoccluded, and 1 ml of 0.25% fluorescent polymer microspheres (2-9 μm diameter, Duke Scientific Corp, Palo Alto, Calif.) were infused into the perfusate to demarcate the risk zone as the area of tissue without fluorescence. The heart was weighed, frozen, and cut into 2.5-mm-thick slices. The slices were incubated in 1% triphenyltetrazolium chloride (TTC) in sodium phosphate buffer at 37° C. for 20 min. The slices were immersed in 10% formalin to enhance the contrast between stained (viable) and unstained (necrotic) tissue and then squeezed between glass plates spaced exactly 2 mm apart. The myocardium at risk was identified by illuminating the slices with ultraviolet light. The infarcted and risk zone areas were traced on a clear acetate sheet and quantified with planimetry by an investigator blinded to the treatment. The areas were converted into volumes by multiplying the areas by slice thickness. Infarct size is expressed as a percentage of the risk zone. Pretreatment with cariporide was so potent that any additional protection would probably be undetectable with a 45-minute ischemic insult. We therefore chose a 60 min period of index ischemia for these studies. […] All data are expressed as means±S.E.M. One-way ANOVA combined with Scheffé's post hoc test was used to test for differences in baseline hemodynamics and infarct size among groups. […]

Test [2] relates to open-chest rabbit hearts. Description: Infarct size, 45 min ischemia model (open-chest rabbit, TTC staining). The format is in vivo, New Zealand White rabbits. The note with it: 45 min ischemia + 3 h reperfusion; for Infarct size: (E)=5 min prior to ischemia, (L)=at reperfusion, (E&L)=from 5 min prior to ischemia for 120 min, mean ± S.E.M.; for Infarct size as a percentage of the risk zone: control 55.8±3.9%. On the procedure: New Zealand White rabbits of either sex weighing 2.0-2.5 kg were anesthetized with pentobarbital (30 mg/kg iv), intubated through a tracheotomy, and ventilated with 100% oxygen via a positive pressure respirator (MD industries, Mobile, Ala.). The ventilation rate and tidal volume were adjusted to maintain arterial blood gases in the physiological range. Body temperature was maintained at 38-39° C. A catheter was inserted into the left carotid artery for monitoring blood pressure. Another catheter was inserted into the right jugular vein for drug infusion. A left thoracotomy was performed in the fourth intercostal space, and the pericardium was opened to expose the heart. A 2-0 silk suture on a curved taper needle was passed through the myocardium around a prominent branch of the left coronary artery. The ends of the suture were passed through a small piece of soft vinyl tubing to form a snare. Ischemia was induced by pulling the snare and then fixing it by clamping the tube with a small hemostat. Ischemia was confirmed by appearance of cyanosis. Reperfusion was achieved by releasing the snare and was confirmed by visible hyperemia on the ventricular surface. After 3 h of reperfusion, the rabbit was given an overdose of pentobarbital and the heart was quickly removed from the chest, mounted on a Langendorff apparatus, and perfused with saline to wash out blood. Then the coronary artery was reoccluded, and 1 ml of 0.25% fluorescent polymer microspheres (2-9 μm diameter, Duke Scientific Corp, Palo Alto, Calif.) were infused into the perfusate to demarcate the risk zone as the area of tissue without fluorescence. The heart was weighed, frozen, and cut into 2.5-mm-thick slices. The slices were incubated in 1% triphenyltetrazolium chloride (TTC) in sodium phosphate buffer at 37° C. for 20 min. The slices were immersed in 10% formalin to enhance the contrast between stained (viable) and unstained (necrotic) tissue and then squeezed between glass plates spaced exactly 2 mm apart. The myocardium at risk was identified by illuminating the slices with ultraviolet light. The infarcted and risk zone areas were traced on a clear acetate sheet and quantified with planimetry by an investigator blinded to the treatment. The areas were converted into volumes by multiplying the areas by slice thickness. Infarct size is expressed as a percentage of the risk zone. Seven groups of rabbits were subjected to 45 min of regional ischemia followed by 3 h of reperfusion (FIG. 1). The PC was induced by a 5 min of regional ischemia followed by a 10 min reperfusion prior to the sustained ischemia. All groups receiving AMP 579 received a bolus injection of 30 μg/kg iv followed by an infusion of 3 μg/kg/min for 70 min. In PC+AMP (L) group, the hearts experienced PC and were treated with AMP 579 at reperfusion for 70 min. AMP 579 alone was given at reperfusion for 70 min in AMP (L) group. The hearts in AMP (E&L) group were treated with AMP 579 starting 5 min before ischemia for 120 min. An intravenous bolus injection of cariporide was given either 5 min prior to ischemia (Cariporide (E)) or 5 min before reperfusion (Cariporide (L)). All data are expressed as means±S.E.M. One-way ANOVA combined with Scheffé's post hoc test was used to test for differences in baseline hemodynamics and infarct size among groups. ANOVA with replication was used to test for changes in hemodynamics during an experiment within each group. A p value of less than 0.05 was considered to be significant.

Turning to `CC(C)c1ccc(C(=O)N=C(N)N)cc1S(C)(=O)=O` [Cariporide, 4-isopropyl-3-methylsulfonylbenzoylguanidine methane sulfonate], the Infarct size in test [1] is recorded as 0.47 ± 0.08* cm^3; in test [2] (listed as Cariporide (E)), 0.13 ± 0.07* cm^3; in test [2] (listed as Cariporide (L)), 0.60 ± 0.08 cm^3. Moreover, the “Infarct size as a percentage of the risk zone” value was 41.5±7.7% in test [1] (cariporide 0.5 mg/kg bolus 5 min prior to ischemia, control 66.0±4.9%); 8.5±3.7% in test [2] (cariporide iv bolus 5 min prior to ischemia (pretreatment)); 53.4±3.5% in test [2] (cariporide iv bolus just prior to reperfusion).

`CCNC(=O)[C@H]1CC(n2cnc3c(N[C@H](CC)Cc4sccc4Cl)ccnc32)[C@H](O)[C@@H]1O` (relative stereo) [AMP 579, [1S-[1α,2β,3β,4α(S*)]]-4-[7-[[3-chloro-2-thienyl)methyl]propyl]amino]-3H-imidazo[4,5-b]pyridin-3-yl]-N-ethyl-2,3-dihydroxycyclopentanecarboxamide]: the Infarct size was 0.59 ± 0.09 cm^3 in test [1], 0.26 ± 0.05* cm^3 in test [2] (listed as AMP (E&L)) and 0.37 ± 0.03* cm^3 in test [2] (listed as AMP (L)). Also, the “Infarct size as a percentage of the risk zone” value in test [1] (AMP 579 alone at reperfusion (30 μg/kg + 3 μg/kg/min, 70 min), not significant vs control 66.0±4.9%) is given as 45.3±5.4%; in test [2] (AMP 579 alone, 30 μg/kg iv bolus + 3 μg/kg/min for 70 min starting at reperfusion), 32.1±1.8%.
